# Test results from patent publication US20080286219A1, “Hydroquinone derivative skin brightening compounds” (priority 2007, published 2008).
# Biological target: Mushroom Tyrosinase (Sigma T3824)
# Assay: General in vitro tyrosinase inhibition assay (L-Dopa oxidation to dopachrome)
# Assay type: biochemical
# Conditions: 0.5 mM L-Dopa, pH 7.0, 30° C., 475 nm, 18 Units Mushroom Tyrosinase
row,SMILES,EC50
1,C[C@H](CSc1cc(O)ccc1O)C(=O)N1CCC[C@H]1C(=O)O [Compound X29876-155],12200 µM
2,Cc1nc(Sc2cc(O)ccc2O)sc1CC(=O)O [Compound X29876-160],520 µM
3,CCOC(=O)CSc1cc(O)ccc1O [Compound X29876-169],3280 µM
4,N[C@H](CSc1cc(O)ccc1O)C(=O)O [Compound X29876-147],30 µM
5,CCOC(=O)[C@@H](N)CSc1cc(O)ccc1O [Compound X29876-064],250 µM
6,COC(=O)[C@@H](N)CSc1cc(O)ccc1O [Compound X29876-145],130 µM
7,CC(=O)N[C@@H](CSc1cc(O)ccc1O)C(=O)O [Compound X29876-018],4850 µM
8,NC(CCC(=O)NC(CSc1cc(O)ccc1O)C(=O)NCC(=O)O)C(=O)O (stereo not shown) [Compound X29876-019],10400 µM
9,N[C@@H](CSc1cc(O)ccc1O)C(=O)O [Compound X29876-063],20 µM
10,"Oc1ccc(O)cc1 [Hydroquinone, hydroquinone]",620 µM
11,CC(=O)C(C)Sc1cc(O)ccc1O (stereo not shown) [Compound X29876-181],310 µM
12,CC(C)(Sc1cc(O)ccc1O)C(N)C(=O)O (stereo not shown) [Compound X29876-144],70 µM
13,OCCCCCCSc1cc(O)ccc1O [Compound X29876-162],10 µM
14,O=C(O)CSc1cc(O)ccc1O [Compound X29876-163],9410 µM
15,Oc1ccc(O)c(SCc2cccs2)c1 [Compound X29876-198],200 µM

# Same assay, conditions: compared to HQ
row,SMILES,fold more potent than HQ
1,N[C@@H](CSc1cc(O)ccc1O)C(=O)O [Compound X29876-063],about 25 fold
